Consider 1 compound from patent US20210228500A1, “CELLULAR RETINOID BINDING PROTEIN ANTAGONISTS AND USES THEREOF” (CASE WESTERN RESRVE UNIVERSITY, priority 2018, published 2021).

Structures are written as SMILES. Entries after “also recorded” stand apart in the source; their conditions may differ.

One assay relates to Balb/cJ mice. The assay is described as follows: Light-induced retinal degeneration (OCT, H&E histology). It counts as in vivo. How it is done: Retinal degeneration was induced by exposing dark-adapted Balb/cJ mice to white light with an intensity of ˜50 000 l×, delivered from a 100 W AC90-145 V lightemitting diode (LED) lamp (Home Depot) for 1 h. Abn-CBD in doses of 30, 15, or 7.5 mg kg^−1 was administered by i.p. injection in sterilized 80% DMSO/water (v/v) 1 h before exposure to bright light. […] Retinal morphology was analyzed in vivo by OCT 7 d after the light exposure. Then the mice were euthanized, and their eyes were subjected to staining with H&E staining and imaging.
To assess the effect of abn-CBD on light-induced retinal degeneration in Balb/cJ mice, the retinas were examined by ultrahigh resolution OCT (Bioptigen). Pupils of mice were first dilated with 1% tropicamide, and the animals were anesthetized with ketamine/xylazine cocktail. Twenty-five frames of OCT images scanned at 0° and 90° were acquired in the B-scan and averaged.
The structural morphology of mouse retinas challenged with bright light were assessed using H&E staining of paraffin sections. Mouse eyes were fixed in 4% paraformaldehyde and 1% glutaraldehyde followed by paraffin sectioning. Paraffin sections (5 μm thick) were stained with H&E and imaged by light microscopy (Leica).

For another assay, the target named is T1, LRAT (Bos taurus, UniProt Q9BGL2).
T1 construct: from tissue; host or cells: bovine RPE microsomes
T1 sequence (Q9BGL2 1-230): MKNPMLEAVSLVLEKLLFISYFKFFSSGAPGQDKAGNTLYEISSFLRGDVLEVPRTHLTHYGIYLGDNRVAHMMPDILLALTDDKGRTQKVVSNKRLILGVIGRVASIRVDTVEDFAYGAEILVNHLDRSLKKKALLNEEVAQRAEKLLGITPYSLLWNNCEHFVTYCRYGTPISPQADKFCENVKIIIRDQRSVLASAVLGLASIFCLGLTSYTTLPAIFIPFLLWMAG
The assay can be described thus: Retinol esterification assay. It counts as biochemical. The settings on record: bovine RPE microsomes preincubated with 10-50 μM. As to the method: The enzymatic activity of LRAT was assayed using isolated UV-treated bovine RPE microsomes as described previously. The reaction mixture included 20 mM Tris/HCl buffer, pH 7.4, 1 mM DTT, 1% bovine serum albumin (BSA; w/v), and RPE microsomes (˜100 μg of total protein) in the total volume of 0.1 mL. To test the influence of abn-CBD on the LRAT activity, 10, 20, or 50 μM of this compound was added prior to the addition of atROL (final concentration of 10 μM). To record the initial rate of the esterification, the mixture was incubated at RT for 5 min. The reaction was quenched with 0.2 mL of methanol, and the retinoids were extracted with 0.3 mL of hexane. The extracted retinoids were separated on a normal phase column (Agilent Zorbax Sil 5 μm 4.6×250 mm) in an isocratic flow of 10% ethyl acetate in hexane (flow rate of 1.5 mL min^−1). Elution of retinoids was monitored at 325 nm. All-trans-retinyl esters were quantified based on a correlation between the amount of injected synthetic standards and the area under chromatographic peaks.
Thus, to further probe the biological effect of this compound, we tested its effect on the key enzymes of the visual cycle. […]

A further assay concerns the target T2, CRBP4 (Homo sapiens, UniProt Q96R05).
T2 construct: thrombin cut site (residual residues after digestion) (C); 6x histidine tag (C, cleaved yes); made in house; host or cells: E. coli BL21 (DE3) (as for CRBP2)
T2 sequence (Q96R05 1-134): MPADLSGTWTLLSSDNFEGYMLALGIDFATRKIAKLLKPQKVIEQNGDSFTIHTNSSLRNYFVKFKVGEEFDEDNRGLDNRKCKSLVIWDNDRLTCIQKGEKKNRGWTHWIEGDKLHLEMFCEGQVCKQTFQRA
The assay can be described thus: Crystal structure of CRBP4 in complex with abn-CBD. It counts as binding. The settings on record: crystal structure PDB No. 6E6K. The source says:
The cDNA of human CRBP4 was purchased from Origene Technologies. The introduction of a thrombin cut site at the C-terminus was achieved by PCR amplification of the cDNA. The PCR product was subcloned into pET30b vector. For the most part, CRBP4 was expressed and purified as described for CRBP2. However, after digestion with thrombin and reloading onto HisTrap column, the unbound fraction of the protein was further purified on a HiTrap SP HP ion exchanger column (GE Healthcare). CRBP4 was loaded in 10 mM Tris/HCl buffer, pH 8.0 buffer, and subsequently eluted with a gradient of NaCl (0-0.5 M) over 30 min at a flow rate 1.0 mL min^−1. Purified CRBP4 was concentrated to 6 mg mL^−1 and liquated at −80° C.
Crystals of CRBP1 in complex abn-CBD and its derivatives (abn-CBDO or CBDO) were grown essentially as described by Silvaroli et al (ACS Chem Biol. 2019, 15; 14(3)). The apo protein at 3 mg mL-1 was preincubated with 300 μM of a ligand in 10 mM Tris-HCl buffer, pH 8.0, 150 mM NaCl for 15 min on ice. This sample (1 μL) was mixed in 1:1 ratio with a crystallization solution composed of 0.1 M BisTris, pH 5.5, and 25% poly(ethylene glycol) (PEG) 3350 (w/v). […]

With `C=C(C)[C@@H]1CCC(C)=C[C@H]1c1c(O)cc(O)cc1CCCCC` [abn-CBD, 4-[(1R,6R)-3-Methyl-6-prop-1-en-2-ylcyclohex-2-en-1-yl]-5-pentylbenzene-1,3-diol], the “retinal histology (H&E) after light exposure” value with Balb/cJ mice (7 d post illumination) is on record as “protective effect; also recorded: partial preservation of the photoreceptor cells”. Moreover, in the assay with Balb/cJ mice (i.p. before bright light, OCT (ONL thickness) 7 d later, estimated), the “dose causing 50% of maximum effect (ED50), protection against light-induced retinal damage” value is ~15 mg/kg. Also, the “protection against light-induced retinal damage (OCT retinal morphology)” value with Balb/cJ mice (i.p. before bright light, OCT a week later) is recorded as “largely protected; also recorded: protective effect”. In addition, at LRAT, the “effect on enzymatic activity of LRAT” value is reported as “did not cause a measurable decline”. Further, at CRBP4, the “binding to CRBP4” value is recorded as “bind abn-CBD similarly to CRBP1”.
